Entries after “also recorded” stand apart in the source; their conditions may differ.
Columns and labels:
[1] = Absorbance spectrum of light absorbing agents; format: physicochemical; settings: light absorbing agent at 1%; for Absorbance spectrum (estimated min-max): estimated width of band covering around 90% of the dye absorbance
Text: (§1) Table 1 summarizes the properties of different light absorbing agents tested according to the invention. The Table presents the absorbance peak and the estimated width of the absorbance band, based on the experimental spectra covering around 90% of the dye absorbance. The intrinsic fluorescence of the agents at the emission wavelength of 570 nm (green channel) or at the emission of 666 nm (red channel) is indicated. Intrinsic fluorescence is expressed as the percentage of the fluorescence compared to cy3 fluorescence if present at 1 μM for green channel (=100%) or Oyster645 fluorescence if present at 1 μM for red channel (=100%). Experimental details are given in example 4.

[2] = system: SuperSalt Taq Polymerase; experiment: Compatibility of dyes with PCR amplification (no inhibition of the PCR); format: biochemical; settings: highest tested concentration which did not inhibit the PCR
Experimental: The Table gives the upper concentration of the agent at which there is no inhibition of the PCR. Two concentrations of Taq polymerase were compared: 5 and 10 units. Experimental details are given in example 3.
PCR was designed for the amplification of the 35 promoter element of DNA sample of a genetically modified organism (GMO).
For each tested light absorbing agent, PCR were performed with different concentrations of agent: 0.005, 0.01, 0.02, 0.05, 0.1, 0.5, 1 and 2% and either 5 U or 10 U of Taq polymerase in PCR mix. Controls tubes were performed without light absorbing agent with 5 U or 10 U of enzyme.
The PCR performed in PCR tubes in a thermocycler (Eppendorf, Hamburg, Germany). Samples were pre incubated for 10 min at 25° C. and then were first denatured at 94° C. for 3 min. Then 40 cycles of amplification were performed consisting of 30 sec at 95° C., 90 sec at 60° C. and 30 sec at 72° C.
After PCR, 1 μL of the PCR product was analyzed by electrophoresis (Agilent Technologies, 2100 Bioanalyzer). The expected size of the amplicon was 79 bp.

[3] = Intrinsic fluorescence of light absorbing agents at the emission wavelengths (green/red channel); format: physicochemical; settings: for Intrinsic fluorescence (emission 666 nm) in % / Intrinsic fluorescence (emission 570 nm) in %: agent at 1%; for Intrinsic fluorescence (emission 666 nm) in %: compared to Oyster645 fluorescence at 1 μM (=100%); for Fluorescence at the emission wavelength of 570 nm (in words) / Intrinsic fluorescence (emission 570 nm) in %: green channel; for Intrinsic fluorescence (emission 570 nm) in %: compared to cy3 fluorescence at 1 μM (=100%)
Text: This concept is exemplified in Table 1. The dye Azure A is a good example. It can be used for the reduction of the fluorescence of a solution at the excitation/emission wavelength of 532/570 (green channel). […] However, the dye is fluorescent at the emission wavelength of 666 nm used in the red channel.
The dye Azure A is thus not capable of reducing the fluorescent of the solution beyond the intrinsic fluorescence of the light absorbing agent at the emission wavelength in the red channel. In presence of this agent, the fluorescence is about 38% (data not shown) the fluorescence value of the solution in the absence of light absorbing agent (=100%).
as §1

| Compound | Absorbance spectrum peak [1] | Absorbance spectrum (estimated min-max) [1] | Maximum concentration in PCR (%) with 5 U Taq polymerase [2] [%] | Intrinsic fluorescence (emission 666 nm) in % ([3]; red channel) [%] | Fluorescence at the emission wavelength of 570 nm (in words) [3] | Fluorescence at the emission wavelength of 666 nm (in words) ([3]; red channel) | Fluorescence of the solution in presence of the agent ([3]; red channel, solution without light absorbing agent = 100%, data not shown) | Maximum concentration in PCR (%) with 10 U Taq polymerase [2] [%] | Intrinsic fluorescence (emission 570 nm) in % [3] [%] |
| --- | --- | --- | --- | --- | --- | --- | --- | --- | --- |
| O=C1/C(=C2\Nc3ccc(S(=O)(=O)[O-])cc3C2=O)Nc2ccc(S(=O)(=O)[O-])cc21.[Na+].[Na+] [(C) E132, E132] | 609 nm | 525-675 | 0.05 | – | – | – | – | – | – |
| CN(C)c1ccc2nc3ccc(N)cc3[s+]c2c1.[Cl-] [(E) Azure A, Azure A] | 636 nm | 450-700 | – | 38 | does not fluoresce | fluorescent | about 38% | – | – |
| CCN(Cc1cccc(S(=O)(=O)[O-])c1)c1ccc(C(=C2C=CC(=[N+](CC)Cc3cccc(S(=O)(=O)[O-])c3)C=C2)c2ccccc2S(=O)(=O)[O-])cc1.[Na+].[Na+] [(L) E133, E133] | 635 nm | 525-690 | 0.05 | 33 | – | shows a basal fluorescence; also recorded: fluorescent | – | 0.1 | – |
| Black Intense [(A) Black Intense] | 565 nm | <400-675 | 0.05 | – | – | – | – | 0.1 | – |
| Blue Dextran [(B) Blue Dextran] | – | – | 0.5 | – | – | – | – | 1 | – |
| Ferritin [(H) Ferritin] | (no peak) | below 500 | – | 15 | fluorescent | fluorescent | – | – | 40 |

Further lines, with some results ahead:

| Absorbance spectrum peak [1] | Absorbance spectrum (estimated min-max) [1] | Maximum concentration in PCR (%) with 5 U Taq polymerase [2] [%] | Intrinsic fluorescence (emission 666 nm) in % ([3]; red channel) [%] | Fluorescence at the emission wavelength of 570 nm (in words) [3] | Fluorescence at the emission wavelength of 666 nm (in words) ([3]; red channel) | Fluorescence of the solution in presence of the agent ([3]; red channel, solution without light absorbing agent = 100%, data not shown) | Maximum concentration in PCR (%) with 10 U Taq polymerase [2] [%] | Compound | Intrinsic fluorescence (emission 570 nm) in % [3] [%] |
| --- | --- | --- | --- | --- | --- | --- | --- | --- | --- |
| 508 nm | <400-585 | – | 18 | fluorescent | fluorescent | – | – | O=S(=O)([O-])c1cc(S(=O)(=O)[O-])c2c(N=Nc3ccc(S(=O)(=O)[O-])c4ccccc34)c(O)ccc2c1.[Na+].[Na+].[Na+] [(G) E124, E124] | 18 |
| 571 nm | 475-670 | 0.05 | – | – | – | – | 0.1 | CC(=O)Nc1ccc(S(=O)(=O)[O-])c2cc(S(=O)(=O)[O-])c(N=Nc3ccc(N=Nc4ccc(S(=O)(=O)[O-])cc4)c4ccc(S(=O)(=O)[O-])cc34)c(O)c12.[Na+].[Na+].[Na+].[Na+] [(J) Black Brilliant, Black Brilliant] | – |
| 635 nm | 525-690 | 0.05 | 47 | – | fluorescent | – | 0.1 | Blue Intense [(K) Blue Intense] | – |
| 585 nm | 500-690 | – | – | – | – | – | – | Brilliant Blue [(F) Brilliant Blue] | – |
| – | below 700 | – | – | – | – | – | – | Melanine [(M) Melanine] | – |

Source: patent publication US20110237455A1, “ARRAY ANALYSIS FOR ONLINE DETECTION” (EPPENDORF AG, priority 2010, published 2011)
